The source of these data is ChEMBL document CHEMBL5634174, “Biological evaluation of sulfonate and sulfate analogues of lithocholic acid: A bioisosterism-guided approach towards the discovery of potential sialyltransferase inhibitors for antimetastatic study” (Bioorg Med Chem Lett, 2024).

Activity calls are given as the source filed them. The rule behind the calls is not given here.

In general, inhibition refers to the percentage by which the read-out fell short of the control. In general, IC50 refers to the concentration needed to halve the response being measured. The term Ki denotes the dissociation constant of the complex between target and ligand, obtained from inhibition or displacement.

Assay [1] addresses T1, Sialyltransferase ST3Gal-I (Rattus norvegicus) (UniProt Q6H8N0).
T1 sequence (whole entry): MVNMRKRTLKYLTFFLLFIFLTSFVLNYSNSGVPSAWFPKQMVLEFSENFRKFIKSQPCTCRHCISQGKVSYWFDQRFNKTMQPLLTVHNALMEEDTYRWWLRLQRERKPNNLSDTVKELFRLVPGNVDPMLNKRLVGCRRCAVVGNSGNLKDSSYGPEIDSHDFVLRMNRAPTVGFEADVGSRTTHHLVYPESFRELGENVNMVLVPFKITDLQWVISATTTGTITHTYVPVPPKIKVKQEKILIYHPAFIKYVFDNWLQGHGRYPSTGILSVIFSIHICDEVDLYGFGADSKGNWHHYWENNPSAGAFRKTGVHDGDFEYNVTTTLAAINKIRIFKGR
As to the kind of experiment: Inhibition of rat ST3GAL1 at 500 uM by UPLC-based assay relative to control.

The target of assay [2] is T2, Sialyltransferase ST3Gal-I (Rattus norvegicus, UniProt Q6H8N0).
T2 sequence (Q6H8N0 whole entry): T1 sequence (whole entry)
Briefly: Inhibition of rat ST3GAL1 by UPLC-based assay.

Assay [3] deals with T3, Beta-galactoside alpha-2,6-sialyltransferase 1 (Homo sapiens, UniProt P15907).
T3 sequence (P15907 whole entry): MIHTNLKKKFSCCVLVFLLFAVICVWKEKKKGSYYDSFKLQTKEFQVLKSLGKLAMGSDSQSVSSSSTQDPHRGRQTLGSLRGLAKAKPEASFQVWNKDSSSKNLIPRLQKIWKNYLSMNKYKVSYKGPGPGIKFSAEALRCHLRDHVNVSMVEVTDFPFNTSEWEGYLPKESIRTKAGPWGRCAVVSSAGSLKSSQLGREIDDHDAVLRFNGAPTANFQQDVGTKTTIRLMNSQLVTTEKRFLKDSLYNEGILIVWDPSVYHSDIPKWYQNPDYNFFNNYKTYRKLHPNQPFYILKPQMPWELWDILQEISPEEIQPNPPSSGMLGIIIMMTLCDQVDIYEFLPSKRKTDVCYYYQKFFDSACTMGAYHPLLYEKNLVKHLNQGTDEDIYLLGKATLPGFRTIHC
As to the kind of experiment: Inhibition of recombinant human N-terminal His tagged ST6GAL1 (44 to 406 residues) by UPLC-based assay.

In assay [4] the target is T4, Beta-galactoside alpha-2,6-sialyltransferase 1 (Homo sapiens) (UniProt P15907).
T4 sequence (whole entry): T3 sequence (P15907 whole entry)
As to the kind of experiment: Inhibition of recombinant human N-terminal His tagged ST6GAL1 (44 to 406 residues) at 50 uM by UPLC-based assay relative to control.

For assay [5], the target named is T1, Sialyltransferase ST3Gal-I (Rattus norvegicus). As to the kind of experiment: Inhibition of rat ST3GAL1 at 1000 uM by UPLC-based assay relative to control.
Assay [6] relates to MDA-MB-231. Briefly: Antimigratory activity against human MDA-MB-231 cells at 60 uM incubated for 16 hrs by transwell migration assay. It counts as functional, cell-based.
The nature of assay [7]: Selectivity index, ratio of IC50 for inhibition of rat ST3GAL1 to IC50 for inhibition of human ST6GAL1.
The test system of assay [8] is MDA-MB-231. As to the kind of experiment: Inhibition of cell invasion in human MDA-MB-231 cells assessed as reduction in cell adhesion to collagen IV at 60 uM incubated for 48 hrs. In kind it is functional, cell-based.
Assay [9] concerns MDA-MB-231. As to the kind of experiment: Inhibition of cell invasion in human MDA-MB-231 cells assessed as reduction in cell adhesion at 60 uM after 48 hrs. In kind it is functional, cell-based.
For assay [10], the system named is MDA-MB-231. As to the kind of experiment: Inhibition of cell invasion in human MDA-MB-231 cells assessed as reduction in cell adhesion to fibronectin at 60 uM incubated for 24 hrs. In kind it is functional, cell-based.
Assay [11] deals with T3, Beta-galactoside alpha-2,6-sialyltransferase 1. Briefly: Inhibition of human ST6GAL1 in the Galbeta1,4GlcNAcbeta-4,5-dimethoxy-2-nitrobenzyl.
Assay [12] deals with MDA-MB-231. Briefly: Antiproliferative activity against human MDA-MB-231 cells assessed as cell viability at 80 uM by MTT assay. It counts as functional, cell-based. On the technique in general: Tetrazolium dyes change colour on reduction, which living cells bring about.
Assay [13] deals with T5, CMP-N-acetylneuraminate-beta-galactosamide-alpha-2,3-sialyltransferase 1 (Mus musculus, UniProt P54751).
T5 sequence (P54751 whole entry): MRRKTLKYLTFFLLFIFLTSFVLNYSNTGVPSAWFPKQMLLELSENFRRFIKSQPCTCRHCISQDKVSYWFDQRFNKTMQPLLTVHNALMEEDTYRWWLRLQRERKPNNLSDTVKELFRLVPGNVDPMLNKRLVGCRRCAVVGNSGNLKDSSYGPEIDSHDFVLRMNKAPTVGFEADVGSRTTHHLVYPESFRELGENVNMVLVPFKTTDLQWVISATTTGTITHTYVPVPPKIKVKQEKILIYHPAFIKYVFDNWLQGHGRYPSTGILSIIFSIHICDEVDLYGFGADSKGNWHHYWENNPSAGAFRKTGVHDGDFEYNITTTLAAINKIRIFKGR
Briefly: Inhibition of mouse brain ST3Gal1 expressed in COS-7 cells using CMP-[14C]NeuAc as substrate assessed as inhibition of constant incubated for 30 mins in presence of Galbeta1,3GalNAcOBzl by Lineweaver-Burk plot analysis.

The target in assay [14] is T3, Beta-galactoside alpha-2,6-sialyltransferase 1. Briefly: Inhibition of ST6GAL1 (unknown origin).
Assay [15] addresses T6, CMP-N-acetylneuraminate-beta-1,4-galactoside alpha-2,3-sialyltransferase (Homo sapiens, UniProt Q11203).
T6 sequence (Q11203 whole entry): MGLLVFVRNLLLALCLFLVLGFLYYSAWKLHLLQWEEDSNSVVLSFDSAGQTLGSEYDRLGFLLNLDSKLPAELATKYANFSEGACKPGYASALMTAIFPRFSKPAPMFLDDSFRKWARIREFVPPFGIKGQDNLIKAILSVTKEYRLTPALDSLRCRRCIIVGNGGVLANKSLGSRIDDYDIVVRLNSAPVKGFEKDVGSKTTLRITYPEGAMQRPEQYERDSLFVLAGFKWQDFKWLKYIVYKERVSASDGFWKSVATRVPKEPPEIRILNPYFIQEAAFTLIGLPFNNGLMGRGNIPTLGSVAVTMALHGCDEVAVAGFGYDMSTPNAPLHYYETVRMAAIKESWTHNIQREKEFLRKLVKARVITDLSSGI
As to the kind of experiment: Inhibition of ST3GAL3 (unknown origin).

The target in assay [16] is T7, CMP-N-acetylneuraminate-beta-galactosamide-alpha-2,3-sialyltransferase 1 (Homo sapiens, UniProt Q11201).
T7 sequence (Q11201 whole entry): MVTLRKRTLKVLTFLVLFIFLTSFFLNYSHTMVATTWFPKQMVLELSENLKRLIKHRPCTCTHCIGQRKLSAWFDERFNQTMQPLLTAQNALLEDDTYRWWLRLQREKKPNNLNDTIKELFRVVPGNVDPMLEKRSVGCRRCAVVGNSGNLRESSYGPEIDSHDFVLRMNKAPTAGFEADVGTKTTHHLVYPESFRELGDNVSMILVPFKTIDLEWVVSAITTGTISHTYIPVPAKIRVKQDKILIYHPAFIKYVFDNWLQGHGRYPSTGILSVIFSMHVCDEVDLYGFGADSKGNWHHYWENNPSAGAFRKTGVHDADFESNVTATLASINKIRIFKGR
As to the kind of experiment: Inhibition of ST3GAL1 (unknown origin).

Take `C[C@H](CCC(=O)NCCS(=O)(=O)O)[C@H]1CC[C@H]2[C@@H]3CC[C@@H]4C[C@H](O)CC[C@]4(C)[C@H]3C[C@H](O)[C@]12C` [TAURODEOXYCHOLIC ACID]: the inhibition is 3% in assay [1] and 0% in assay [4]. Further, the IC50 was > 500 µM in assay [2] and > 50 µM in assay [3].
In the case of `C[C@H](CCC(=O)O)[C@H]1CC[C@H]2[C@@H]3CC[C@@H]4C[C@H](O)CC[C@]4(C)[C@H]3CC[C@]12C` [LITHOCHOLIC ACID], the inhibition in [1] is 53%; in [5], 64%; in assay [4] it was 0%. Moreover, the IC50 in assay [2] is 500 µM; in [3], > 50 µM.
For the compound `C[C@H](CCCOS(=O)(=O)O)[C@H]1CC[C@H]2[C@@H]3CC[C@@H]4C[C@H](OS(=O)(=O)O)CC[C@]4(C)[C@H]3CC[C@]12C`, the inhibition in [1] was 90%; in [5], 100%; in assay [4], 100%. Moreover, the result in [6] was Active. The IC50 in [2] amounted to 402 µM; in [3] it was 21.5 µM. In assay [7], the Ratio IC50 came out at 19. In addition, the inhibition result in assay [8] and in assay [10] was “Active” in each case. The inhibition result in [9] is “inactive”.
In turn, `C[C@H](CCC(=O)O)[C@H]1CC[C@H]2[C@@H]3CC[C@@H]4C[C@H](OC(=O)[C@@H](N)CC(=O)O)CC[C@]4(C)[C@H]3CC[C@]12C` showed an IC50 in assay [11] of 17 µM.
With `C[C@H](CCCS(=O)(=O)O)[C@H]1CC[C@H]2[C@@H]3CC[C@@H]4C[C@H](OS(=O)(=O)O)CC[C@]4(C)[C@H]3CC[C@]12C`, the result in assay [12] was Active. Further, the figures for the inhibition in assay [1], in [5] and in assay [4] were 35%, 100% and 0%, respectively. Moreover, the IC50 in assay [2] is 500 µM; in [3], > 50 µM.
With `C[C@H](CCC(=O)O)[C@H]1CC[C@H]2[C@@H]3[C@@H](O)C[C@@H]4C[C@H](O)CC[C@]4(C)[C@H]3CC[C@]12C` [URSODIOL], the values for the inhibition in assay [1] and in assay [4] were 3% and 0%, respectively. Also, the IC50 in assay [2] was > 500 µM; in assay [3], > 50 µM.
On the same counts, the results for `C[C@H](CCC(=O)O)[C@H]1CC[C@H]2[C@@H]3[C@H](O)C[C@@H]4C[C@H](O)CC[C@]4(C)[C@H]3CC[C@]12C` [CHENODIOL] are 6%, 0%, > 500 µM and > 50 µM.
Take `C[C@H](CCCS(=O)(=O)O)[C@H]1CC[C@H]2[C@@H]3CC[C@@H]4C[C@H](O)CC[C@]4(C)[C@H]3CC[C@]12C`: the inhibition in assay [1] was found to be 5%; in assay [5], 40%; in [4], 100%. Also, the outcome in assay [6] was Active. Moreover, the half-inhibitory concentration (IC50) in [2] was > 1000 µM; in assay [3] it was 18.5 µM. In addition, the Ratio IC50 in assay [7] was > 54.
Consider `C[C@H](CCC(=O)O)[C@H]1CC[C@H]2[C@@H]3C[C@H](O)[C@@H]4C[C@H](O)CC[C@]4(C)[C@H]3CC[C@]12C` [HYODEOXYCHOLIC_ACID], for which the inhibition worked out at 7% in assay [1] and 0% in assay [4]. Further, the IC50 is > 500 µM in assay [2] and > 50 µM in assay [3].
Consider `C[C@H](CCC(=O)O)[C@H]1CC[C@H]2[C@@H]3CC[C@@H]4C[C@H](OS(=O)(=O)O)CC[C@]4(C)[C@H]3CC[C@]12C`, for which the values for the inhibition in assay [1], in assay [5] and in assay [4] were 23%, 82% and 0%, respectively. Moreover, the half-maximal inhibitory concentration (IC50) is 500 µM in assay [2] and > 50 µM in assay [3].
`C[C@@H]1O[C@@H](O[C@H]2[C@H](O[C@H]3[C@H](O[C@H]4CC[C@@]5(C)[C@@H](CC[C@]6(C)[C@@H]5CC=C5[C@@H]7CC(C)(C)C[C@@H](O)[C@]7(C)CC[C@]56C)[C@@]4(C)CO)O[C@H](C(=O)O)[C@@H](O)[C@@H]3O)O[C@H](CO)[C@H](O)[C@@H]2O)[C@H](O)[C@H](O)[C@H]1O` [SOYASAPONIN I]: in assay [13], the Ki turned out to be 2.3 µM.
`C[C@H](CCC(=O)O)[C@H]1CC[C@H]2[C@@H]3CC[C@@H]4C[C@H](OC(=O)[C@H](CC(=O)O)Nc5ccc([N+](=O)[O-])c6nonc56)CC[C@]4(C)[C@H]3CC[C@]12C`: the IC50 in assay [14] stood at 1.5 µM; in assay [15], 0.88 µM; in [16], 13 µM.
